This passage reports IC50 and Ki results from ChEMBL document CHEMBL1909046, “DrugMatrix in vitro pharmacology data”.

pIC50, pKi: −log10 of the molar value.

Experiment [1] concerns the target 5-hydroxytryptamine receptor 1B (Rattus norvegicus, UniProt P28564). The experiment is classed as cell membranes, Wistar, Cerebral cortex, Membrane. Further: in other assays of this panel Not Active means under 50% inhibition at 10 µM.
Another experiment deals with Melanocortin receptor 4 (Homo sapiens, UniProt P32245). Format: cell membranes, Membrane. Particulars: hek293.
Experiment [2] deals with T1, 3-hydroxy-3-methylglutaryl-coenzyme A reductase (Homo sapiens, UniProt P04035).
T1 sequence (P04035 whole entry): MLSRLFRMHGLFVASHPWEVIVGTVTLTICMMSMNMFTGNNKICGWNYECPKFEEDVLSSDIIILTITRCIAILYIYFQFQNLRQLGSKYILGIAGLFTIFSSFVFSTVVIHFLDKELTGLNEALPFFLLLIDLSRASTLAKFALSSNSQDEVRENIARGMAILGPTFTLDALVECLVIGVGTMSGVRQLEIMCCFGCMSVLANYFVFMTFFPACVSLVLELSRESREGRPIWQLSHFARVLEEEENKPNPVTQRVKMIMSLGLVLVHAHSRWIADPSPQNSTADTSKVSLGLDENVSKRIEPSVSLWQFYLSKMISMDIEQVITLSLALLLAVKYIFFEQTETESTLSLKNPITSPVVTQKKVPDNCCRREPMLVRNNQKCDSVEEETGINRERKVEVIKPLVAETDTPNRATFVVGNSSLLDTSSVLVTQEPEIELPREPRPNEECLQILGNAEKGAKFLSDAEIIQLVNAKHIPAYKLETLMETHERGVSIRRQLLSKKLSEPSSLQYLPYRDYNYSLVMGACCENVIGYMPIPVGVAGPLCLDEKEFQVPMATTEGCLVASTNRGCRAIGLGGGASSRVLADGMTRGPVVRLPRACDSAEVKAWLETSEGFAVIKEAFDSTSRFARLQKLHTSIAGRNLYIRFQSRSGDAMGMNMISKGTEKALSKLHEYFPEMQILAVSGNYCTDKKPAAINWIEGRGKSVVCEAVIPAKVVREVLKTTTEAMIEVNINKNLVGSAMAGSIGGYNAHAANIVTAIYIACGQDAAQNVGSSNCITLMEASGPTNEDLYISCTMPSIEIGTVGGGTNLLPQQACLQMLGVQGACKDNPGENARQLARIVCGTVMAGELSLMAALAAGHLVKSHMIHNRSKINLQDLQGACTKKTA
Details: species or system Escherichia coli.

For experiment [3], the target named is T2, Alpha-2C adrenergic receptor (Homo sapiens, UniProt P18825).
T2 sequence (P18825 whole entry): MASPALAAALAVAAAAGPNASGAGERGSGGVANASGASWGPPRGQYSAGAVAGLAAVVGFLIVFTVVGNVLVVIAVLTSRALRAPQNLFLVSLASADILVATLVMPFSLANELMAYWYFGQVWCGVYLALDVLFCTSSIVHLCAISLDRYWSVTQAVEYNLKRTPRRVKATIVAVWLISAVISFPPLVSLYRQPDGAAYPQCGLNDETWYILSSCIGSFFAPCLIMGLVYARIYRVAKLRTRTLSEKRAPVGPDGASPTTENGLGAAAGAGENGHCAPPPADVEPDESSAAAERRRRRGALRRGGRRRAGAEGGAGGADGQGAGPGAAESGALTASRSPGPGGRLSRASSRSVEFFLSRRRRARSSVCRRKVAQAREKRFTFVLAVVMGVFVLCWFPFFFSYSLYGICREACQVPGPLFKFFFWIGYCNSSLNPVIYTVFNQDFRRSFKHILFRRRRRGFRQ
Put plainly: DRUGMATRIX: Adrenergic Alpha-2C radioligand binding (ligand: [3H] MK-912). Format: cell membranes, Sf9, Membrane. The conditions noted are these: for IC50: sf9.

In experiment [4] the target is cGMP-specific 3',5'-cyclic phosphodiesterase (Homo sapiens, UniProt O76074). Put plainly: DRUGMATRIX: Phosphodiesterase PDE5 enzyme inhibition (substrate: [3H]cGMP + cGMP). The experiment is classed as tissue-based. The conditions noted are these: platelet; Not Active = under 50% inhibition at 10 µM.
The target in experiment [5] is Mitogen-activated protein kinase 3 (Homo sapiens, UniProt P27361). The experiment in a line: DRUGMATRIX: Protein Serine/Threonine Kinase, ERK1 enzyme inhibition (substrate: Myelin Basic Protein). Set-up: species or system Escherichia coli. The conditions noted are these: Not Active = under 50% inhibition at 10 µM.
Experiment [6] is described as follows: DRUGMATRIX: Glutamate, AMPA radioligand binding (ligand: [3H] AMPA). Format: cell membranes, Rattus norvegicus, Wistar, Cerebral cortex, Membrane. Particulars: Not Active = under 50% inhibition at 10 µM.
For another experiment, the target named is T3, Endothelin-1 receptor (Homo sapiens, UniProt P25101). Further: in other assays of this panel Not Active means under 50% inhibition at 10 µM.
T3 sequence (P25101 whole entry): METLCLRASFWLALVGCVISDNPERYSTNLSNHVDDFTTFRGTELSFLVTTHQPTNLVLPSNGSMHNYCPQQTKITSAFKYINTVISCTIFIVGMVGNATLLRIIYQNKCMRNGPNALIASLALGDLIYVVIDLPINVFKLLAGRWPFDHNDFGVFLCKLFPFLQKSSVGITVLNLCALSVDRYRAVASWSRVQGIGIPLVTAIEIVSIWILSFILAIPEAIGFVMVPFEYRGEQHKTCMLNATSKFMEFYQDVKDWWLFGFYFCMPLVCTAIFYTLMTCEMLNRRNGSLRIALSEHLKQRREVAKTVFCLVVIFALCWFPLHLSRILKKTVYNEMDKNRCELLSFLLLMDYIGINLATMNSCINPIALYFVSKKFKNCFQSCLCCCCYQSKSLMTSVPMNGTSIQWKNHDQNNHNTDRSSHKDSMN
The experiment is classed as cell membranes, Membrane. The conditions noted are these: cho-k1.

Chain of Melanocortin receptor 4 (P32245 whole entry): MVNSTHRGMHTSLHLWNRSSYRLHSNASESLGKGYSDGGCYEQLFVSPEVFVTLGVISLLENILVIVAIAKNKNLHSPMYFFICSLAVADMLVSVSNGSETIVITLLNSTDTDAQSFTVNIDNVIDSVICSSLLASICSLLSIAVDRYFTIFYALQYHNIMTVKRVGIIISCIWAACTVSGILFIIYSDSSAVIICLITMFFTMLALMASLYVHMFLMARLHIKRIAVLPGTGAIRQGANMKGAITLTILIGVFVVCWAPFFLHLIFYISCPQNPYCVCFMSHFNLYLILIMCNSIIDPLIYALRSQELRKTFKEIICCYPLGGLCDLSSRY
Chain of Mitogen-activated protein kinase 3 (P27361 whole entry): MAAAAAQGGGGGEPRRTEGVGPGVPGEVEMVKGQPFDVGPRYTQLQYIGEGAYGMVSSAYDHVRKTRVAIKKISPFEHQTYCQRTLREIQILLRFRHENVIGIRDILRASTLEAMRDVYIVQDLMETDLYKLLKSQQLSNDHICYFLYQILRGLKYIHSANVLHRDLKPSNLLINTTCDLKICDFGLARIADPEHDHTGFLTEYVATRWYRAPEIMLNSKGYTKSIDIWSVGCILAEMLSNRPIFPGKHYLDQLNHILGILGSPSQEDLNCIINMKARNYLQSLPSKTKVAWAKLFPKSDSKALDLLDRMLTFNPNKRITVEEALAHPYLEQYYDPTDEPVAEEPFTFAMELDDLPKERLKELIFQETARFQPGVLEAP
Chain of 5-hydroxytryptamine receptor 1B (P28564 whole entry): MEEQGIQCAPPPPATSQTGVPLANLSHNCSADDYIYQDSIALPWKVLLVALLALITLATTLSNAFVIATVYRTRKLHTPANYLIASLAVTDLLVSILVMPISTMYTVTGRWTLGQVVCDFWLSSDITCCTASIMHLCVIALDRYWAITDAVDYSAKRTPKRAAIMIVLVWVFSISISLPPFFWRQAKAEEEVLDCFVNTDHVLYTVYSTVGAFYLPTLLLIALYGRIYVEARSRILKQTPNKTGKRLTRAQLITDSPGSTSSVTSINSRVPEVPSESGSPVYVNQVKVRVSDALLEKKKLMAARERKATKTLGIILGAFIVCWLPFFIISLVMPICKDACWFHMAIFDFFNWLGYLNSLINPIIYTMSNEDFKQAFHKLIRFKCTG

As a reminder, the pIC50 is the negative decadic logarithm of the IC50, by convention in mol/L. As usually defined, the pKi is −log10 of the Ki, conventionally taken in molar units. For `CCc1c2c(nc3ccc(OC(=O)N4CCC(N5CCCCC5)CC4)cc13)-c1cc3c(c(=O)n1C2)COC(=O)[C@]3(O)CC` [IRINOTECAN], the IC50 entry (in experiment [1]; on Melanocortin receptor 4; in experiment [2]; in experiment [4]; in experiment [5]; in experiment [6]) was “Not Active” throughout. Further, the IC50 result against Endothelin-1 receptor is “Not Active”. Besides, in experiment [3] (read-out: IC50), the pIC50 was 5.50. For the same molecule, the pKi in experiment [3] (read-out: Ki) is 6.34. The Ki entry in experiment [6] was “Not Active”.
On to `CC(C(=O)O)c1cccc(C(=O)c2ccccc2)c1` (stereo unspecified) [KETOPROFEN], for which the IC50 entry (in experiment [1]; on Melanocortin receptor 4; in experiment [2]; in experiment [3]; in experiment [4]; in experiment [5]) was “Not Active” throughout. Besides, the IC50 entry (in experiment [6]; against Endothelin-1 receptor) was “Not Active” throughout. Besides, the Ki entry in experiment [6] is recorded as “Not Active”.
For `Nc1ccn([C@@H]2CS[C@H](CO)O2)c(=O)n1` [LAMIVUDINE], the IC50 entry (in experiment [1]; against Melanocortin receptor 4; in experiment [2]; in experiment [3]; in experiment [4]; in experiment [5]) was “Not Active” in each case. Further, the IC50 entry (in experiment [6]; at Endothelin-1 receptor) was “Not Active” each time. In experiment [6], the Ki entry was “Not Active”.
Turning to `O=S(=O)([O-])CCS.[Na+]` [MESNA], the IC50 entry (in experiment [1]; against Melanocortin receptor 4; in experiment [2]; in experiment [3]; in experiment [4]; in experiment [5]) was “Not Active” throughout. For the same molecule, the IC50 entry (in experiment [6]; at Endothelin-1 receptor) was “Not Active” in each case. Also, the Ki result in experiment [6] is on record as “Not Active”.
In the case of `C#C[C@]1(O)CC[C@H]2[C@@H]3CCc4cc(OC)ccc4[C@H]3CC[C@@]21C` [MESTRANOL], the IC50 result (in experiment [1]; at Melanocortin receptor 4; in experiment [2]; in experiment [3]; in experiment [4]; in experiment [5]) was “Not Active” in each case. Moreover, the IC50 entry (in experiment [6]; on Endothelin-1 receptor) was “Not Active” throughout. The Ki result in experiment [6] is “Not Active”.
As to `CC(=O)Nc1cccc(O)c1` [METACETAMOL], the IC50 result (in experiment [1]; on Melanocortin receptor 4; in experiment [2]; in experiment [3]; in experiment [4]; in experiment [5]) was “Not Active” throughout. Also, the IC50 entry (in experiment [6]; on Endothelin-1 receptor) was “Not Active” in each case. In experiment [6], the Ki entry was “Not Active”.
Regarding `Cc1ncc([N+](=O)[O-])n1CCO` [METRONIDAZOLE], the IC50 result (in experiment [1]; against Melanocortin receptor 4; in experiment [2]; in experiment [3]; in experiment [4]; in experiment [5]) was “Not Active” each time. Moreover, the IC50 entry (in experiment [6]; at Endothelin-1 receptor) was “Not Active” each time. Also, the Ki entry in experiment [6] is reported as “Not Active”.
`CC(C)(C(=O)c1cccnc1)c1cccnc1` [METYRAPONE]: the IC50 result (in experiment [1]; against Melanocortin receptor 4; in experiment [2]; in experiment [3]; in experiment [4]; in experiment [5]) was “Not Active” in each case. Also, the IC50 entry (in experiment [6]; at Endothelin-1 receptor) was “Not Active” in each case. Moreover, the Ki entry in experiment [6] was “Not Active”.
On to `Oc1ccc(OCc2ccccc2)cc1` [MONOBENZONE], for which the IC50 entry (in experiment [1]; against Melanocortin receptor 4; in experiment [2]; in experiment [3]; in experiment [4]; in experiment [5]) was “Not Active” in each case. Further, the IC50 result (in experiment [6]; at Endothelin-1 receptor) was “Not Active” in each case. Also, in experiment [6], the Ki result is recorded as “Not Active”.
As to `CC(C)(Oc1ccc(C2CCCc3ccccc32)cc1)C(=O)O` (stereo unspecified) [NAFENOPIN], the IC50 result (in experiment [1]; on Melanocortin receptor 4; in experiment [2]; in experiment [3]; in experiment [4]; in experiment [5]) was “Not Active” throughout. In addition, the IC50 result (in experiment [6]; against Endothelin-1 receptor) was “Not Active” throughout. The Ki result in experiment [6] was “Not Active”.
Consider `CC(C)[C@H]1CC[C@H](C(=O)N[C@H](Cc2ccccc2)C(=O)O)CC1` [NATEGLINIDE], for which the IC50 entry (in experiment [1]; against Melanocortin receptor 4; in experiment [2]; in experiment [3]; in experiment [4]; in experiment [5]) was “Not Active” throughout. Moreover, the IC50 result (in experiment [6]; at Endothelin-1 receptor) was “Not Active” throughout. The Ki result in experiment [6] is given as “Not Active”.
Take `CCN[C@@H]1C[C@H](N)[C@@H](O[C@H]2OC(CN)=CC[C@H]2N)[C@H](O)[C@H]1O[C@H]1OC[C@](C)(O)[C@H](NC)[C@H]1O` [NETILMICIN]: the IC50 entry (in experiment [1]; on Melanocortin receptor 4; in experiment [2]; in experiment [3]; in experiment [4]; in experiment [5]) was “Not Active” in each case. Further, the IC50 entry (in experiment [6]; on Endothelin-1 receptor) was “Not Active” in each case. Also, the Ki result in experiment [6] is recorded as “Not Active”.
In the case of `COC(=O)C1=C(C)NC(C)=C(C(=O)OCC(C)C)C1c1ccccc1[N+](=O)[O-]` (stereo unspecified) [NISOLDIPINE], the IC50 result (in experiment [1]; against Melanocortin receptor 4; in experiment [2]; in experiment [3]; in experiment [4]; in experiment [5]) was “Not Active” throughout. For the same molecule, the IC50 entry (in experiment [6]; against Endothelin-1 receptor) was “Not Active” each time. The Ki entry in experiment [6] is recorded as “Not Active”.
Consider `CCOC(=O)C1=C(C)NC(C)=C(C(=O)OC)C1c1cccc([N+](=O)[O-])c1` (stereo unspecified) [NITRENDIPINE], for which the IC50 result (in experiment [1]; against Melanocortin receptor 4; in experiment [2]; in experiment [3]; in experiment [4]; in experiment [5]) was “Not Active” each time. Also, the IC50 entry (in experiment [6]; at Endothelin-1 receptor) was “Not Active” each time. In addition, the Ki entry in experiment [6] is given as “Not Active”.
As for `C#C[C@]1(OC(C)=O)CC[C@H]2[C@@H]3CCC4=CC(=O)CC[C@@H]4[C@H]3CC[C@@]21C` [NORETHINDRONE ACETATE], the IC50 result (in experiment [1]; against Melanocortin receptor 4; in experiment [2]; in experiment [3]; in experiment [4]; in experiment [5]) was “Not Active” each time. The IC50 result (in experiment [6]; on Endothelin-1 receptor) was “Not Active” each time. Moreover, the Ki result in experiment [6] is “Not Active”.
